How the values were obtained:
Assay in all cases: AUC of viability dose-response curve (% viability x log10 dose units); higher = less sensitive
Details in all cases: 48 h
SEM cells = system: SEM cells
Summary of the method: (§1)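 Leukemia cells adapted to each medium were seeded at 500 or 1000 cells/well in 1536-well plates and dosed with library compounds in DMSO at 11 threefold doses from 47 μM to 0.79 nM for 48 h at 37°C. CellTiter-Glo One luminescence was normalised per plate to DMSO and cell-free wells, then fitted with a four-parameter log-logistic model over log10 doses. Area under the curve was taken from this fit by the trapezoidal rule, with curves above full viability scaled and curves failing quality control removed.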

NOMO1 = system: NOMO1
Summary of the method: as §1

P12-Ichikawa = system: P12-Ichikawa
Summary of the method: as §1

[1] = RPMI 5 mM glucose + 10% dialyzed FBS

CC(C)C[C@H](NC(=O)[C@@H](O)[C@H](N)Cc1ccccc1)C(=O)O
AUC of viability dose-response curve (SEM cells; HPLM + 10% dialyzed FBS): 453 | AUC of viability dose-response curve (SEM cells; RPMI 5 mM glucose + 10% FBS): 455 | AUC of viability dose-response curve (SEM cells; [1]): 454 | AUC of viability dose-response curve (NOMO1; HPLM + 10% dialyzed FBS): 451 | AUC of viability dose-response curve (NOMO1; RPMI 5 mM glucose + 10% FBS): 447 | AUC of viability dose-response curve (NOMO1; [1]): 439 | AUC of viability dose-response curve (P12-Ichikawa; HPLM + 10% dialyzed FBS): 463 | AUC of viability dose-response curve (P12-Ichikawa; RPMI 5 mM glucose + 10% FBS): 447 | AUC of viability dose-response curve (P12-Ichikawa; [1]): 452

Source: the supplement of paper PMC11451515
